Consider two compounds from paper PMC8622623, “Histamine H3 Receptor Ligands—KSK-59 and KSK-73—Reduce Body Weight Gain in a Rat Model of Excessive Eating” (Pharmaceuticals, 2021).

The target in series [1] is T1, H3 histamine receptor (Homo sapiens, UniProt Q9Y5N1).
T1 construct: host or cells: recombinant frozen ready-to-use cells
Description: Aequoscreen intrinsic activity assay (antagonist dose-response). In kind it is cell-based. Here is the method: Intrinsic activity studies were performed by two methods, Aequoscreen and Lance cAMP assays according to the manufacturer of the ready to use cells with stable expression of the H3 histamine receptor (Perkin Elmer, Waltham, MA, USA).
The Aequoscreen technology uses the recombinant cell lines with stable co-expression of apoaequorin and a GPCR as a system to detect activation of the receptor, following addition of an agonist, via the measurement of light emission. For measurement cells (frozen, ready to use) were thawed and resuspended in 10 mL of an assay buffer containing 5 μM of coelenterazine h. Then cells suspension was placed in a 10 mL Falcon tube, fixed onto a rotating wheel and incubated overnight at RT° in the dark. Cells were diluted with assay buffer to 5000 cells/20 µL. Agonistic ligands 2× (50 μL/well), diluted in assay buffer, were prepared in 1/2 area white polystyrene plates, and the 50 μL of cell suspension was dispensed on the ligands using the injector. The light emission was recorded for 20 s. Cells were incubated with antagonist for 15 min at RT°. Then 50 µL of agonist (3 × EC80 final concentration) was injected onto the mixture of cells and antagonist and the light emission was recorded for 20 s.

Series [2] is described as follows: Pharmacokinetics after single i.p. administration. In kind it is in vivo. Conditions: single i.p. 10 mg/kg; for AUC(0-inf) / Cmax / Tmax / CL/F / MRT / k el / Vd/F / half-life: ip; for AUC(0-inf): heading: AUC0-inf; for CL/F: read-out: CLS/F (clearance) (converted); for MRT: read-out: MRT (mean residence time); for k el: read-out: λz (terminal elimination rate constant) (converted); for Vd/F / half-life: rat, plasma; for Vd/F: n = 3, read-out: Vz/F (volume of distribution); for half-life: n = 3, read-out: t0.5λz (half-life) (converted). Here is the method:
Six rats divided into two experimental groups were used in pharmacokinetic experiments. Three days before the experiment, rats’ jugular vein was cannulated allowing for the multiple blood sampling from the single animal. Investigated compounds suspended in 1% Tween 80 were administered i.p. at the single dose of 10 mg/kg. Blood samples (approximately 300 µL) were collected to Eppendorf tubes containing heparin at 5, 15, 30, 60, 120, 240 and 360 min after dosing. Plasma was harvested by centrifuging at 5000× g for 10 min and stored at −30 °C until bioanalysis.
Plasma concentrations of KSK-59 or KSK-73 were measured by liquid chromatography tandem mass spectrometry (LC-MS/MS) method. Samples (50 μL) were deproteinized at the ratio of 1:3 (v/v) with acetonitrile containing an internal standard (IS—pentoxifiline), briefly vortexed and then centrifuged for 10 min at the speed of 8000× g (Eppendorf miniSpin centrifuge). The supernatant was transferred into the autosampler vials and a sample volume of 10 μL was injected into LC-MS/MS system.
Chromatographic separation was carried out on XBridge™ C18 (3 × 50 mm, 5 µm, Waters, Dublin, Ireland) analytical column using the HPLC system Agilent 1100 (Agilent Technologies, Waldbronn, Germany). The mobile phase containing 0.1% formic acid in acetonitrile and in water was run at 0.3 mL/min in the gradient mode. Mass spectrometric detection was performed on an Applied Biosystems MDS Sciex (Concord, ON, Canada) API 2000 triple quadrupole mass spectrometer. Electrospray ionization (ESI) in the positive ion mode was used for ion production. The tandem mass spectrometer was operated at unit resolution in the selected reaction monitoring mode (SRM), monitoring the transitions of the protonated molecular ions m/z 382 to 107 for KSK-59, m/z 410 to 107 for KSK-73 and m/z 279 to 181 for IS. Data acquisition and processing were accomplished using the Applied Biosystems Analyst version 1.6 software. The calibration curves were constructed by plotting the ratio of the peak area of the studied compound to IS versus drug concentration and generated by weighted (1/x·x) linear regression analysis. The validated quantitation ranges were from 1 to 2000 ng/mL. Calculated accuracy and precision were within the ranges proposed by guidelines for bioanalytical methods validation (FDA, EMA). No significant matrix effect was observed and there were no stability related problems during the routine analysis of the samples.
Pharmacokinetic parameters were calculated by employing a non-compartmental approach, using Monolix version 2019R1 (Antony, France: Lixoft SAS, 2019) software. The area under the mean plasma concentration versus time curve extrapolated to infinity (AUC0-inf) was estimated using the log/linear trapezoidal rule. AUMC0-inf was estimated by calculation of total area under the first-moment curve by combining trapezoid calculation of AUMC0-t and extrapolated area. The mean residence time (MRT) was calculated from AUMC0-inf/AUC0-inf. The terminal rate constant (λz) was calculated by log-linear regression of the drug concentration data in the terminal phase and the terminal half-life (t1/2) were calculated as 0.693/λz. The clearance (CL/F) was estimated from the administered dose divided by AUC0-inf. The apparent volume of distribution during terminal phase (Vz/F) was calculated from (CL/F)/λz.

The test system of series [3] is non-obese rats fed palatable diet. Description: Plasma lipids, hormones, corticosterone, CRP and IL-6 at end of chronic experiment. The series is classed as in vivo, female Wistar rats. Conditions: for plasma triglyceride levels: day 31, palatable feed + treatment, compared to rats fed standard feed. Here is the method: On the 31st day of the experiment, 20 min after i.p. administration of heparin (5000 units/rat) and thiopental (70 mg/kg b.w.), blood was collected from the left carotid artery and then centrifuged at 600× g (15 min, 4 °C) in order to obtain the plasma. To determine total cholesterol, HDL-cholesterol, LDL-cholesterol or triglyceride levels in plasma, standard enzymatic and spectrophotometric tests (Biomaxima S.A. Lublin, Poland) were used. The ELISA Kit (Cayman Chemical, USA) assay was used to determine corticosterone levels in plasma. To determine IL-6, ghrelin, adiponectin, leptin and C-reactive protein levels in plasma, standard ELISA Kit (Bioassay Technology Laboratory, Shanghai, China) was used.

The test system of series [4] is female Wistar rats. Description: Visceral illness via kaolin intake (pica behavior). The series is classed as in vivo. Particulars: for kaolin clay intake: single i.p. 10 mg/kg b.w.; for kaolin clay intake / water intake (pica model): vs control group that received i.p. CuSO4; for kaolin intake: KSK compounds 10 mg/kg or bupropion/naltrexone, vs vehicle control and CuSO4 control. Here is the method: The method was based on the works by Takeda et al. and Yamamoto et al. with minor modification. The experiment lasted for five days. In addition to free access to feed, animals had also free access to a white kaolin. For the first few days, the animals were accustomed to the presence of kaolin in their cages. […] Moreover, animals were weighed before the compounds administration and 24 h after.

In series [5] the test system is non-obese rats fed palatable diet. Description: Spontaneous activity (RFID TraffiCage). In kind it is in vivo, female Wistar rats. Conditions: KSK compounds 10 mg/kg, vs control fed palatable diet; for spontaneous activity after chronic administration: 27th day, i.p.; for spontaneous activity after first administration: day 1, i.p. Here is the method: The spontaneous activity of rats was measured on the 1st and 27th day of the treatment with a special RFID-system—TraffiCage (TSE-Systems, Germany). The animals were subcutaneously implanted with transmitter identification (RFID), which enabled the presence and time spent in different areas of the cage to be counted and then the data were grouped in a special computer program.

T1 sequence (Q9Y5N1 whole entry): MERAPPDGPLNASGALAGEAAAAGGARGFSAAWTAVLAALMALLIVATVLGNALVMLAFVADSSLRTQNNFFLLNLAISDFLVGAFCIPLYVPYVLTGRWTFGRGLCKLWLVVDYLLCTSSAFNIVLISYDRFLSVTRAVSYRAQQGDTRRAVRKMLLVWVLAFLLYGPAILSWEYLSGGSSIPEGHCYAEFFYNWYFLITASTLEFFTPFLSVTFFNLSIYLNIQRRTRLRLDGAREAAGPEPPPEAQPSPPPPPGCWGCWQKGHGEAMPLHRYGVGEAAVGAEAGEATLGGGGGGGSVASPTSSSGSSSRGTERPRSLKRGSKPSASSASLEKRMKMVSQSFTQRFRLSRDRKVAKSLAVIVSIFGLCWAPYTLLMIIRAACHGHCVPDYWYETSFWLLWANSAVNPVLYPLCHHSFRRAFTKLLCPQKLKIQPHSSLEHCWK

By IC50 is commonly meant the concentration that inhibits the measured activity by half. The AUC(0-inf) is the area under the concentration-time curve extrapolated to infinity. By Cmax is commonly meant the maximum level reached in the sampled fluid or tissue. As a reminder, the Tmax is the time at which the peak concentration occurs. Broadly, the MRT is the average time that molecules of a dose stay in the body. By half-life is commonly meant how long it takes for the measured level to halve. Consider `CC(=O)c1ccc(OCCCCCCN2CCN(c3ccncc3)CC2)cc1.O=C(O)C(=O)O` [KSK-59, 1-(4-((6-(4-(pyridin-4-yl)piperazin-1-yl)hexyl)oxy)phenyl)ethan-1-one oxalate], for which the IC50 in series [1] turned out to be 3.31 ± 3.2 nM. The compound also showed an AUC(0-inf) in series [2] (10 mg/kg, rat plasma, n = 3) of 538 ng·h/mL. Further, in series [2] (rat plasma, n = 3), the highest level (Cmax) was 96 ng/mL, the Tmax amounted to 4.98 min, the CL/F was 1120 mL/min/kg and the MRT was determined as 2.04 h. The k el in series [2] (rat plasma, n = 3) is 0.000122 s⁻¹. Besides, in series [2] (rat plasma), the “time at which Cmax was reached (first sampling point)” value turned out to be 5 min. Also, in series [2] (rat plasma, n = 3, 10 mg/kg), the “Vz/F (volume of distribution)” value is reported as 152.22 L/kg and the “t0.5λz (half-life)” value worked out at 1.58 h. Also, in series [2] (10 mg/kg), the Vd/F is 152 L/kg and the half-life is 1.6 h. Moreover, the plasma triglyceride levels result in series [3] is given as “statistically significantly higher”. Besides, the plasma adiponectin level result in series [3] (day 31, vs control rats fed palatable feed) is on record as “Significantly lower level of adiponectin”. Besides, the kaolin clay intake entry in series [4] is listed as “consumed significantly less kaolin clay”. Also, in series [4] (single i.p., 24 h), the “water intake (pica model)” value is “lower water intake” and the kaolin intake result is recorded as “did not consume more kaolin”. Besides, in series [5], the “spontaneous activity after chronic administration” value is recorded as “did not affect spontaneous activity” and the “spontaneous activity after first administration” value is “did not affect spontaneous activity”.
Take `CC(=O)c1ccc(OCCCCCCCCN2CCN(c3ccncc3)CC2)cc1.O=C(O)C(=O)O` [KSK-73, 1-(4-((8-(4-(pyridin-4-yl)piperazin-1-yl)octyl)oxy)phenyl)ethan-1-one oxalate]: in series [1], 20.6 ± 4.5 nM corresponded to half-maximal inhibition (IC50). In series [2] (10 mg/kg, rat plasma, n = 3), this compound had a total exposure AUC(0-inf) of 888 ng·h/mL. Moreover, in series [2] (rat plasma, n = 3), the concentration peaked (Cmax) at 216 ng/mL, the time to peak (Tmax) is 4.98 min, the CL/F is 675 mL/min/kg and the MRT came out at 4.2 h. Further, in series [2] (rat plasma, n = 3), the k el was 5.28e-05 s⁻¹. Moreover, the “time at which Cmax was reached (first sampling point)” value in series [2] (rat plasma) is 5 min. In series [2] (10 mg/kg), the Vd/F came out at 216 L/kg and the half-life was 3.7 h. The plasma triglyceride levels result in series [3] is “comparable to the ones observed in rats from the control group fed standard feed”. Further, the kaolin clay intake entry in series [4] is “consumed significantly less kaolin clay”. In series [4] (single i.p., 24 h), the “water intake (pica model)” value was “lower water intake” and the kaolin intake result is on record as “did not consume more kaolin”. In addition, the “calorie intake (pica model)” value in series [4] (single i.p., 24 h, vs vehicle control) is “consumed fewer calories”. Also, in series [5], the “spontaneous activity after chronic administration” value is reported as “no such changes were observed” and the “spontaneous activity after first administration” value is on record as “statistically significant decrease in spontaneous activity”.
